Tests used:
CDK2/CycE = molecular target: T1, CDK2/CycE (Homo sapiens, UniProt P24941); test: CDK2/CycE kinase assay; format: biochemical; conditions: 0.5 μM ATP, histone IIIS, 22° C., 10 min
T1 construct: GST; purchased ProQinase GmbH, Freiburg; host or cells: baculovirus-infected insect cells (Sf9)
Protocol: Recombinant CDK2- and CycE-GST fusion proteins, purified from baculovirus-infected insect cells (Sf9), were purchased from ProQinase GmbH, Freiburg. The histone IIIS used as kinase substrate was purchased from Sigma.
(§1) CDK2/CycE (50 ng/measurement point) was incubated in the presence of various concentrations of test substances (0 μM, and within the range 0.01-100 μM) in assay buffer [50 mM Tris/HCl pH 8.0, 10 mM MgCl2, 0.1 mM Na ortho-vanadate, 1.0 mM dithiothreitol, 0.5 μM ATP, 10 μg/measurement point histone IIIS, 0.2 μCi/measurement point ^33P-gamma-ATP, 0.05% NP40, 1.25% dimethyl sulphoxide] at 22° C. for 10 min. The reaction was stopped by adding EDTA solution (250 mM, pH 8.0, 15 μl/measurement point).
15 μl of each reaction mixture were loaded onto P30 filter strips (from Wallac), and non-incorporated ^33P-ATP was removed by washing the filter strips three times in 0.5% strength phosphoric acid for 10 min each time.
(§2) After the filter strips had been dried at 70° C. for 1 hour, the filter strips were covered with scintillator strips (MeltiLex™ A, from Wallac) and baked at 90° C. for 1 hour. The amount of incorporated ^33P (substrate phosphorylation) was determined by scintillation measurement in a gamma radiation counter (Wallac).

CDK1/CycB = molecular target: T2, CDK1/CycB (Homo sapiens, UniProt P06493); test: CDK1/CycB kinase assay; format: biochemical; conditions: 0.5 μM ATP, histone IIIS, 22° C., 10 min
T2 construct: GST; purchased ProQinase GmbH, Freiburg; host or cells: baculovirus-infected insect cells (Sf9)
Protocol: as §1, with “Recombinant CDK1- and CycB-GST fusion proteins, purified from baculovirus-infected insect cells (Sf9), were purchased from ProQinase GmbH, Freiburg. The histone IIIS used as kinase substrate can be purchased from Sigma. CDK1/CycB (200” for “CDK2/CycE (50”
as §2, with “15 μl of each reaction mixture were loaded onto P30 filter strips (from Wallac), and non-incorporated ^33P-ATP was removed by washing the filter strips three times in 0.5% strength phosphoric acid for 10 min each time. After” for “After”

MCF7 breast tumour cells = test: MCF7 proliferation assay; format: cell-based, human; conditions: for IC50: Homo sapiens, MCF7, 96 h, 4 days incubation, crystal violet staining; for antiproliferative activity, MCF7 (in words): summary of Tab. 2
Protocol: Cultivated human MCF7 breast tumour cells (ATCC HTB-22) were plated out in a density of 5000 cells/measurement point in 200 μl of growth medium (RPMI1640, 10% foetal calf serum, 2 mU/mL insulin, 0.1 nM oestradiol) in a 96-well multititre plate. After 24 hours, the cells from a plate (zero plate) were stained with crystal violet (see below), while the medium in the other plates was replaced by fresh culture medium (200 μl) to which the test substances had been added in various concentrations (0 μM, and in the range 0.1-30 μM; the final concentration of the solvent dimethyl sulphoxide was 0.5%). The cells were incubated in the presence of the test substances for 4 days. The cell proliferation was determined by staining the cells with crystal violet: the cells were fixed by adding 20 μl/measurement point of an 11% strength glutaraldehyde solution at room temperature for 15 min. After the fixed cells had been washed three times with water, the plates were dried at room temperature. The cells were stained by adding 100 μl/measurement point of a 0.1% strength crystal violet solution (pH adjusted to pH 3 by adding acetic acid). After the stained cells had been washed three times with water, the plates were dried at room temperature. The dye was dissolved by adding 100 μl/measurement point of a 10% strength acetic acid solution, and the extinction was determined by photometry at a wavelength of 595 nm. The percentage change in cell growth was calculated by normalizing the measurements to the extinctions of the zero point plate (=0%) and the extinction of the untreated (0 μM) cells (=100%). The IC50 values were determined by means of a 4-parameter fit using the company's own software.

Aurora-C = molecular target: T3, Aurora-C (Homo sapiens, UniProt Q9UQB9); test: Aurora-C kinase assay; format: biochemical; conditions: for IC50: 3 μM ATP, 22° C., 90 min
T3 construct: made in house; host or cells: transiently transfected HEK293 cells
T3 sequence (Q9UQB9 1-309): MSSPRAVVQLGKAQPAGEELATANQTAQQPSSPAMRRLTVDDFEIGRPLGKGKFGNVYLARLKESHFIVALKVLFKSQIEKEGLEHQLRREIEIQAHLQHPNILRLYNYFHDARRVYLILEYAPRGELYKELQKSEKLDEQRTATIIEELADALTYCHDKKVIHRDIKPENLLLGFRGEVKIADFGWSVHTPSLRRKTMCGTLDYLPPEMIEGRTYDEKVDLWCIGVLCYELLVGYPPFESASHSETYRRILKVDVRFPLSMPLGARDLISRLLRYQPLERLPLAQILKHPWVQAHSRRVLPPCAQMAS
Protocol: Recombinant Aurora-C protein was expressed in transiently transfected HEK293 cells and then purified. The kinase substrate used was the biotinylated peptide having the amino acid sequence biotin-FMRLRRLSTKYRT, which was purchased from Jerini AG in Berlin.
Aurora-C [5 nM in the test mixture, test volume 5 μl] was incubated in the presence of various concentrations of test substances (0 μM and 10 measurement points within the range 0.001-20 μM in duplicate) in assay buffer [25 mM HEPES pH 7.4, 0.5 mM MnCl2, 0.1 mM Na ortho-vanadate, 2.0 mM dithiothreitol, 0.05% bovine serum albumin (BSA), 0.01% Triton X-100, 3 μM adenosine trisphosphate (ATP), 0.67 nCi/μl gamma-^33P-ATP, 2.0 μM substrate peptide biotin-FMRLRRLSTKYRT, 1.0% dimethyl sulphoxide] at 22° C. for 90 min. The reaction was stopped by adding 12.5 μl of an EDTA/detection solution [16 mM EDTA, 40 mM ATP, 0.08% Triton X-100, 4 mg/ml PVT streptavidin SPA beads (from Amersham)]. After incubation for 10 minutes, the SPA beads were pelleted by centrifugation at 1000×G for 10 minutes. Measurement took place in a PerkinElmer Topcount scintillation counter. The measured data were normalized to 0% inhibition (enzyme reaction without inhibitor) and 100% inhibition (enzyme reaction in the presence of 0.1 μM staurosporine (from Sigma)). The IC50 values were determined by means of a 4-parameter fit using the company's own software.

KDR (VEGFR2) = molecular target: T4, KDR (VEGFR2) (Homo sapiens, UniProt P35968); test: KDR kinase assay; format: biochemical; conditions: 10 μM ATP, 22° C., 45 min, HTRF
T4 construct: made in house; host or cells: E. coli
Protocol: Recombinant KDR protein was expressed in E. coli and then purified. The kinase substrate used was the biotinylated peptide having the amino acid sequence biotin-DFGLARDMYDKEYYSVG, which was purchased from Biosynthan. KDR [test volume 5 μl] was incubated in the presence of various concentrations of test substances (0 μM, and 10 measurement points within the range 0.001-20 μM in duplicate) in assay buffer [50 mM HEPES pH 7.0, 25.0 mM MgCl2, […], 0.1 mM Na ortho-vanadate, 1.0 mM dithiothreitol, 0.001% NP40, 10 μM ATP, 0.03 μM substrate peptide […], 1.0% dimethyl sulphoxide] at 22° C. for 45 min. The reaction was stopped by adding 5 μl of an EDTA/detection solution [50 mM HEPES pH 7.5, 125 mM EDTA, 0.2% BSA, 0.1 μM streptavidin-XLent (from CisBio), 2 nM PT66-Eu (from PerkinElmer)]. The fluorescence emission at 620 nm and 665 nm after excitation with light of the wavelength 350 nm was measured in a Rubystar HTRF instrument from BMG Labsystems.
The measured data (ratio of emission 665 divided by emission 620 multiplied by 10 000) were normalized to 0% inhibition (enzyme reaction without inhibitor) and 100% inhibition (all assay components apart from enzyme). The IC50 values were determined by means of a 4-parameter fit using the company's own software.

T2 sequence (P06493 whole entry): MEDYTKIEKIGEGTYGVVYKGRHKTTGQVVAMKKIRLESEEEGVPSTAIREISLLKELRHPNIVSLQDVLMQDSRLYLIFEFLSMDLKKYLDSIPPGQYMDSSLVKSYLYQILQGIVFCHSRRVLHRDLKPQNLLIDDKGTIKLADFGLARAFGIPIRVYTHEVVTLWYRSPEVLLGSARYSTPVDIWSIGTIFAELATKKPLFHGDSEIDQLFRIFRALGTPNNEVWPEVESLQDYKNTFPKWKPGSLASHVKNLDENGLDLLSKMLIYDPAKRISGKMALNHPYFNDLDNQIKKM
T2 sequence (P14635 whole entry partner): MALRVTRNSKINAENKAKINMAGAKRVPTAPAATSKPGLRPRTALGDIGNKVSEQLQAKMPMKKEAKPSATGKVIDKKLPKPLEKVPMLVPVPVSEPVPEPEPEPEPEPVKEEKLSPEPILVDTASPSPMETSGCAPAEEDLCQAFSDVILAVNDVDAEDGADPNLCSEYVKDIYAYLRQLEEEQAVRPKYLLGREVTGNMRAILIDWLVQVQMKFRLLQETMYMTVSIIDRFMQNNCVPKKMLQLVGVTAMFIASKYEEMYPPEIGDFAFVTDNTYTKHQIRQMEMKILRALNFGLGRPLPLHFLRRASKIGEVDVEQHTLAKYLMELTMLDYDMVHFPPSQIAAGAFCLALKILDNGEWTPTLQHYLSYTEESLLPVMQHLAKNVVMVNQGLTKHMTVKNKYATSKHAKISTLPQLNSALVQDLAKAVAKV
T4 sequence (P35968 20-1356, species assumed): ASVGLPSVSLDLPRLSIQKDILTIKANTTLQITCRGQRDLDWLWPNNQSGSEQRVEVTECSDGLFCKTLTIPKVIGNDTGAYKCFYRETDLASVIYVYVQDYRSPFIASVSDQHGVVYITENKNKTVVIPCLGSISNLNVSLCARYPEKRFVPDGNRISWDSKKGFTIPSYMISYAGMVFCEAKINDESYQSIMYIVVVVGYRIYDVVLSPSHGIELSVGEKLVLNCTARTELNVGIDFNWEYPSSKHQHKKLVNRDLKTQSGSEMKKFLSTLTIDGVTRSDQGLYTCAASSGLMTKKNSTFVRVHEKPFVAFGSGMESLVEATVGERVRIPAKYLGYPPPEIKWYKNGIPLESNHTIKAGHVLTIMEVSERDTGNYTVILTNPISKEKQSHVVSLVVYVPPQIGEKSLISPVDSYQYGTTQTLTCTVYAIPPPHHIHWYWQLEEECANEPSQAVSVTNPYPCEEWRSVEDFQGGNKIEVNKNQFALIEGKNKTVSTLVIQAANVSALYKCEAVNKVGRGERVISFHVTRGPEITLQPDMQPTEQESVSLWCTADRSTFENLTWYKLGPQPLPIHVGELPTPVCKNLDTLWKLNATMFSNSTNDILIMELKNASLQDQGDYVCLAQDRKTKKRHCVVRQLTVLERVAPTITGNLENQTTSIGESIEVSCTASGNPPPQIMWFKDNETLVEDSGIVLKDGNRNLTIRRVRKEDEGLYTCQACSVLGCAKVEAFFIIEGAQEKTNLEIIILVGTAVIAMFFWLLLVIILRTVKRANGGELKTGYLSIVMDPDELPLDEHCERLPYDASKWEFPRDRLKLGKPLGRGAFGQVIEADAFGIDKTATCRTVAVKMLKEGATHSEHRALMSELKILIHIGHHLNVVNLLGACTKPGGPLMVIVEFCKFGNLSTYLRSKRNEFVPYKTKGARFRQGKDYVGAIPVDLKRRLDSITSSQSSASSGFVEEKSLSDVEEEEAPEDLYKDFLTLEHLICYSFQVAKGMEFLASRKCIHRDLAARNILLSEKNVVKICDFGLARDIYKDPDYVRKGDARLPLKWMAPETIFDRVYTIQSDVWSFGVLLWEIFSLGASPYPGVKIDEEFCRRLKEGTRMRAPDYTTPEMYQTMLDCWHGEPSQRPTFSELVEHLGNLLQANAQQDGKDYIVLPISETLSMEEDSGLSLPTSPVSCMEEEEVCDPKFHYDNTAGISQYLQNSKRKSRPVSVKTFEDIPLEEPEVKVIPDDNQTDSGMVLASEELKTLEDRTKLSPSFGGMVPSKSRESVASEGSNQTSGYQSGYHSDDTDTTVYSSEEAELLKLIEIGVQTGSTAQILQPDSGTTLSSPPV

SMILES	IC50 (CDK2/CycE)	IC50 (CDK1/CycB)	IC50 (MCF7 breast tumour cells)	IC50 (Aurora-C)	IC50 (KDR (VEGFR2))	inhibition of Aurora C kinase (in words) (Aurora-C; summary of Tab. 1)	antiproliferative activity, MCF7 (in words) (MCF7 breast tumour cells)
Cc1ccc(S(=O)(=O)N=S(C)c2ccc(Nc3ncc(Br)c(N[C@H](C)C(C)(C)O)n3)cc2)nc1 (mixture of isomers) [Example 10, (RS)—S-{4-[(5-Bromo-4-{[(R)-2-hydroxy-1,2-dimethylpropyl]amino}pyrimidin-2-yl)amino]phenyl}-S-methyl-N-[(5-methyl-2-pyridyl)sulphonyl]sulphimide]	–	–	–	–	–	–	excellent antiproliferative activity
Cc1ccc(S(=O)(=O)N=S(C)c2ccc(Nc3ncc(Br)c(NCCO)n3)cc2)cc1 (racemic) [Example 7, (RS)—S-[4-({5-Bromo-4-[(2-hydroxyethyl)amino]pyrimidin-2-yl}amino)phenyl]-S-methyl-N-(tolylsulphonyl)sulphimide]	> 1000 nM	> 1000 nM	–	680 nM	43 nM	–	–
Cc1ccc(S(=O)(=O)N=S(C)c2cccc(Nc3ncc(Br)c(NC4CC4)n3)c2)cc1 (racemic) [Example 4, (RS)—S-(3-{[5-Bromo-4-(cyclopropylamino)pyrimidin-2-yl]amino}phenyl)-S-methyl-N-(tolylsulphonyl)sulphimide]	> 1000 nM	> 1000 nM	–	–	170 nM	–	–
Cc1ccc(S(=O)(=O)N=S(C)c2ccc(Nc3ncc(Br)c(Nc4ccccc4)n3)cc2)cc1 (racemic) [Example 6, (RS)—S-{4-[(4-Anilino-5-bromopyrimidin-2-yl)amino]phenyl}-S-methyl-N-(tolylsulphonyl)sulphimide]	> 1000 nM	> 1000 nM	–	–	120 nM	–	–
Cc1ccc(S(=O)(=O)N=S(C)c2ccc(Nc3ncc(Br)c(NC4CC4)n3)cc2)cc1 (racemic) [Example 3, (RS)—S-(4-{[5-Bromo-4-(cyclopropylamino)pyrimidin-2-yl]amino}phenyl)-S-methyl-N-(tolylsulphonyl)sulphimide]	–	> 1000 nM	340 nM	90 nM	13 nM	inhibits	–
C[C@@H](Nc1nc(Nc2ccc(S(C)=NS(=O)(=O)c3ccc(Cl)s3)cc2)ncc1Br)C(C)(C)O (mixture of isomers) [Example 17, (RS)—S-{4-[(5-Bromo-4-{[(R)-2-hydroxy-1,2-dimethylpropyl]amino}pyrimidin-2-yl)amino]phenyl}-N-[(5-chloro-2-thienyl)sulphonyl]-S-methylsulphimide]	–	–	–	–	–	–	excellent antiproliferative activity

Second part, led by results:

IC50 (CDK2/CycE)	IC50 (CDK1/CycB)	IC50 (MCF7 breast tumour cells)	IC50 (Aurora-C)	IC50 (KDR (VEGFR2))	inhibition of Aurora C kinase (in words) (Aurora-C; summary of Tab. 1)	SMILES	antiproliferative activity, MCF7 (in words) (MCF7 breast tumour cells)
39 nM	160 nM	200 nM	480 nM	38 nM	–	COc1ccc(S(=O)(=O)N=S(C)c2ccc(Nc3ncc(Br)c(N[C@H](C)C(C)(C)O)n3)cc2)cc1 (mixture of isomers) [Example 12, (RS)—S-{4-[(5-Bromo-4-{[(R)-2-hydroxy-1,2-dimethylpropyl]amino}pyrimidin-2-yl)amino]phenyl}-N-[(4-methoxyphenyl)sulphonyl]-S-methylsulphimide]	–
> 1000 nM	> 1000 nM	–	–	200 nM	–	Cc1ccc(S(=O)(=O)N=S(C)c2cccc(Nc3ncc(Br)c(NC(C)C)n3)c2)cc1 (racemic) [Example 2, (RS)—S-(3-{[5-Bromo-4-(isopropylamino)pyrimidin-2-yl]amino}phenyl)-S-methyl-N-(tolylsulphonyl)sulphimide]	–
–	990 nM	2200 nM	36 nM	35 nM	–	CC(=O)NCCNc1nc(Nc2ccc(S(C)=NS(=O)(=O)c3ccc(C)cc3)cc2)ncc1Br (racemic) [Example 23, (RS)—S-{4-[(4-{[2-(Acetylamino)ethyl]amino}-5-bromopyrimidin-2-yl)amino]-phenyl}-S-methyl-N-(tolylsulphonyl)sulphimide]	–
> 1000 nM	> 1000 nM	–	4600 nM	760 nM	–	Cc1ccc(S(=O)(=O)N=S(C)c2ccc(Nc3nccc(NC(C)C)n3)cc2)cc1 (racemic) [Example 5, (RS)—S-(4-{[4-(Isopropylamino)pyrimidin-2-yl]amino}phenyl)-S-methyl-N-(tolylsulphonyl)sulphimide]	–

Source: patent US7943629B2, “Sulphimides as protein kinase inhibitors” (Bayer Schering Pharma AG, priority 2006, dated 2011)
